Test results from article PMC4278837, “A Cyclic Peptidic Serine Protease Inhibitor: Increasing Affinity by Increasing Peptide Flexibility” (PLoS ONE, 2014).
Like-named read-outs stand apart in the source and are kept apart here. One block for each molecule: values may come before it. Bridge positions count the residues as written; N and C are the ends. Square brackets hold non-standard residues; d marks the D form. Peptide text beside a SMILES is read from it. Phe(4-guanidino) = N=C(N)Nc1ccc(C[C@H](N)C(=O)O)cc1

Experiments:
huPA-H99Y R35A = target: T1, huPA-H99Y R35A (Homo sapiens, UniProt P00749, H272Y/R198A); experiment: Ki for inhibition of huPA-H99Y-R35A, chromogenic substrate; assay type: biochemical
T1 construct: To ensure that the uPAs purified from the conditioned media were completely in the two-chain form, they were treated with plasmin; hexa-His (C); made in house; host or cells: HEK293 6E suspension cells
Excerpt: (§1) Determination of Ki values
(§2) The initial reaction velocities were monitored at an absorbance of 405 nm. The inhibition constants (K i) were subsequently determined from the non-linear regression analyses of plots for V i/V o versus [I]0, using Equation 2, derived under assumption of competitive inhibition:
(§3) [drawing 2] (2) where V i and V 0 are the reaction velocities in the presence and absence of inhibitor, respectively; [S]0 and [I]0 are the substrate and inhibitor concentrations, respectively; K M is K M for substrate hydrolysis by each protease. In Equation 2, it is assumed that [S]free ≈ [S]0 and [I]free ≈ [I]0.

huPA-H99Y V41A = target: T2, huPA-H99Y V41A (Homo sapiens, UniProt P00749, H272Y/V208A); experiment: Ki for inhibition of huPA-H99Y-V41A, chromogenic substrate; assay type: biochemical
T2 construct: To ensure that the uPAs purified from the conditioned media were completely in the two-chain form, they were treated with plasmin; hexa-His (C); made in house; host or cells: HEK293 6E suspension cells
Excerpt: as §1, §2, §3

huPA-H99Y K143A = target: T3, huPA-H99Y K143A (Homo sapiens, UniProt P00749, H272Y/K320A); experiment: Ki for inhibition of huPA-H99Y-K143A, chromogenic substrate; assay type: biochemical
T3 construct: To ensure that the uPAs purified from the conditioned media were completely in the two-chain form, they were treated with plasmin; hexa-His (C); made in house; host or cells: HEK293 6E suspension cells
Excerpt: as §1, §2, §3

muPA K41A = target: T4, muPA K41A (Mus musculus, UniProt P06869, K210A); experiment: Ki for inhibition of muPA-K41A, chromogenic substrate; assay type: biochemical, murine
T4 construct: To ensure that the uPAs purified from the conditioned media were completely in the two-chain form, they were treated with plasmin; hexa-His (C); made in house; host or cells: HEK293 6E suspension cells
Excerpt: as §1, §2, §3

muPA Y99A = target: T5, muPA Y99A (Mus musculus, UniProt P06869, Y274A); experiment: Ki for inhibition of muPA-Y99A, chromogenic substrate; assay type: biochemical, murine
T5 construct: To ensure that the uPAs purified from the conditioned media were completely in the two-chain form, they were treated with plasmin; hexa-His (C); made in house; host or cells: HEK293 6E suspension cells
Excerpt: as §1, §2, §3

muPA K143A = target: T6, muPA K143A (Mus musculus, UniProt P06869, K322A); experiment: Ki for inhibition of muPA-K143A, chromogenic substrate; assay type: biochemical, murine; conditions: means ± S.D.; read-out: K i for inhibition of muPA-K143A
T6 construct: To ensure that the uPAs purified from the conditioned media were completely in the two-chain form, they were treated with plasmin; hexa-His (C); made in house; host or cells: HEK293 6E suspension cells
Excerpt: as §1, §2, §3

muPA S190A = target: T7, muPA S190A (Mus musculus, UniProt P06869, S373A); experiment: Ki for inhibition of muPA-S190A, chromogenic substrate; assay type: biochemical, murine
T7 construct: To ensure that the uPAs purified from the conditioned media were completely in the two-chain form, they were treated with plasmin; hexa-His (C); made in house; host or cells: HEK293 6E suspension cells
Excerpt: as §1, §2, §3

muPA V213T = target: T8, muPA V213T (Mus musculus, UniProt P06869, V396T); experiment: Ki for inhibition of muPA-V213T, chromogenic substrate; assay type: biochemical, murine
T8 construct: To ensure that the uPAs purified from the conditioned media were completely in the two-chain form, they were treated with plasmin; hexa-His (C); made in house; host or cells: HEK293 6E suspension cells
Excerpt: as §1, §2, §3

huPA-H99Y [1] = target: T9, huPA-H99Y (Homo sapiens, UniProt P00749, H272Y); experiment: Surface plasmon resonance analysis of peptide binding to huPA-H99Y; conditions: SPR
T9 construct: To ensure that the uPAs purified from the conditioned media were completely in the two-chain form, they were treated with plasmin; hexa-His (C); made in house; host or cells: HEK293 6E suspension cells
Experimental: (§4) Surface plasmon resonance (SPR) analysis
(§5) To determine the equilibrium binding constants (KD), the association rate constants (kon) and dissociation rate constants (koff) for peptide binding to uPA, surface plasmon resonance analysis was performed on a Biacore T200 instrument (Biacore, Uppsala, Sweden). A CM5 chip was coupled with the uPA variant (muPA or huPAH99Y) to be analysed, by injecting a concentration of 30 µg/mL uPA in immobilization buffer (10 mM sodium acetate, pH 5.0), aiming for an immobilised level of approximately 500 response units (RU). Immobilisation was followed by surface blocking with ethanolamine. A reference cell was prepared in the same way, without coupling of uPA. Mupain-1 variants in HBS with 0.1% BSA, in a dilution series, were injected at a flow rate of 30 µL per min during 60 s at 25°C. Subsequently, the dissociation was monitored during 600 s. Kinetic constants (k on and k off) were calculated with the Biacore Evaluation Software, using the 1∶1 kinetic fit. The K D values were calculated as k off /k on.

muPA = target: T10, muPA (Mus musculus, UniProt P06869); experiment: Surface plasmon resonance analysis of peptide binding to muPA; set-up: species or system murine; conditions: SPR, 25°C, pH 7.4
T10 construct: To ensure that the uPAs purified from the conditioned media were completely in the two-chain form, they were treated with plasmin; hexa-His (C); made in house; host or cells: HEK293 6E suspension cells
Experimental: as §4, §5

huPA-H99Y [2] = target: T11, huPA-H99Y (Homo sapiens, UniProt P00749, C299A/H272Y/N322Q); experiment: Isothermal titration calorimetry for binding to huPA-H99Y catalytic domain; conditions: ITC, 25°C, pH 7.4
T11 construct: recombinant uPA catalytic domain (residues 159–411), harbouring a H99Y mutation; made in house; host or cells: Pichia pastoris X-33 (secreted)
Experimental: For these experiments, we used the catalytic domain of huPA-H99Y expressed in and purified from Pichia pastoris strain X-33 (see above). The protein was dissolved in and dialysed against a buffer of 20 mM sodium phosphate, pH 7.4, 140 mM NaCl. The protein concentration was determined by absorbance at 280 nm, using an extinction coefficient of 43810 M^−1cm^−1. The peptides were dissolved in the above-mentioned buffer. All isothermal titration calorimetry experiments were performed with a MicroCal^TM ITC200 instrument equilibrated to a temperature of 25°C (298oK). The concentration of uPA-H99Y catalytic domain used in the 200 µl sample cell was 5–50 µM, depending on the affinity of the ligand. Titrations were performed by injecting 2 µl of the ligand until the total syringe volume of 40 µl was spent. Titration of ligand into buffer was performed to obtain buffer correction. The equilibrium association constant KA and the reaction enthalpy ΔH were calculated by fitting the integrated titration peaks using a one-binding-site model in the ITC ORIGIN7 programme package. The following formulas for Gibbs free energy ΔG were used to analyse the measured energies
[drawing 4] (4) where R is the gas constant and T the absolute temperature. ΔS, the entropic change during the reaction, was calculated using equations 3 and 4 and the measured K A and ΔH values.

huPA-H99Y [3] = target: T9, huPA-H99Y; conditions: 37°C; means ± S.D.; starred values reproduced from previous publications; ref Andersen et al., 2008; Hosseini et al., 2011; read-out: K i for inhibition of huPA-H99Y; cited from earlier work
muPA wt [4] = target: T12, muPA wt (Mus musculus, UniProt P06869); conditions: introduction; read-out: K i value for inhibition of muPA; cited from earlier work
T12 construct: To ensure that the uPAs purified from the conditioned media were completely in the two-chain form, they were treated with plasmin; hexa-His (C); made in house; host or cells: HEK293 6E suspension cells

huPA-H99Y Q192A = huPA-H99Y Q192A (Homo sapiens, UniProt P00749, H272Y/Q373A); experiment: Ki for inhibition of huPA-H99Y-Q192A, chromogenic substrate; assay type: biochemical; set-up: To ensure that the uPAs purified from the conditioned media were completely in the two-chain form, they were treated with plasmin; hexa-His (C); made in house; host or cells: HEK293 6E suspension cells
Excerpt: as §1, §2, §3

huPA-H99Y [5] = target: T9, huPA-H99Y; experiment: Ki for inhibition of huPA-H99Y, chromogenic substrate S-2444; assay type: biochemical; conditions: 37°C; means ± S.D.; read-out: K i for inhibition of huPA-H99Y
Excerpt: as §1, §2, §3

muPA wt [6] = target: T12, muPA wt; experiment: Ki for inhibition of muPA wt, chromogenic substrate; assay type: biochemical, murine; conditions: means ± S.D.; read-out: K i for inhibition of muPA wt
Excerpt: as §1, §2, §3

T10 sequence (P06869 180-433 limits assumed): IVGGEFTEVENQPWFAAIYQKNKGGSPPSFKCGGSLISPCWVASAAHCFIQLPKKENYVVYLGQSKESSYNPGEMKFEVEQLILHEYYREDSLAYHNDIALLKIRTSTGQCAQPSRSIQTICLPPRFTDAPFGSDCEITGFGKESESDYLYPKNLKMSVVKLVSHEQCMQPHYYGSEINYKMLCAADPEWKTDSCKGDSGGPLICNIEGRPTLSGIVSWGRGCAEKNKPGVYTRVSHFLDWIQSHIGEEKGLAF
T10 sequence (P06869 21-178 partner limits assumed): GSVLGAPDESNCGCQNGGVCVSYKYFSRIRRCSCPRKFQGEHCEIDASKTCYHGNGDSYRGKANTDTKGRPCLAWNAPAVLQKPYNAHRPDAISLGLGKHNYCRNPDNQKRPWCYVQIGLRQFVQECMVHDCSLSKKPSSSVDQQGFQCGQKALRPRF
T5 sequence (P06869 180-433 Y274A): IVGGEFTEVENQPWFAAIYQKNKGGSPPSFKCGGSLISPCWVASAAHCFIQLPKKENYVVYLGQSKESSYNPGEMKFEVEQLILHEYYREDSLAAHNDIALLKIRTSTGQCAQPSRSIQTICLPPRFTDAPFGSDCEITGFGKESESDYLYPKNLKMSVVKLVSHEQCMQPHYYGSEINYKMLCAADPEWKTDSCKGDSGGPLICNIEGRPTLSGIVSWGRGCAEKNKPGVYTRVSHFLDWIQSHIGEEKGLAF
T5 sequence (P06869 21-178 partner limits assumed): as the sequence (P06869 21-178 partner limits assumed) above
T12 sequence (P06869 180-433 limits assumed): as the sequence (P06869 180-433 limits assumed) above
T12 sequence (P06869 21-178 partner limits assumed): as the sequence (P06869 21-178 partner limits assumed) above
T7 sequence (P06869 180-433 S373A): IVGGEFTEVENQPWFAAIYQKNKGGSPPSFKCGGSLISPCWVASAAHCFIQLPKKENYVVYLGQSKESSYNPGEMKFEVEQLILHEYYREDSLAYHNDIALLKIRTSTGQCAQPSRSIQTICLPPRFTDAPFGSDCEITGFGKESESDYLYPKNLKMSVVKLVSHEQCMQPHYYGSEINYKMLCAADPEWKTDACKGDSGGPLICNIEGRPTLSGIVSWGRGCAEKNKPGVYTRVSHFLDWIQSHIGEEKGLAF
T7 sequence (P06869 21-178 partner limits assumed): as the sequence (P06869 21-178 partner limits assumed) above
T6 sequence (P06869 180-433 K322A): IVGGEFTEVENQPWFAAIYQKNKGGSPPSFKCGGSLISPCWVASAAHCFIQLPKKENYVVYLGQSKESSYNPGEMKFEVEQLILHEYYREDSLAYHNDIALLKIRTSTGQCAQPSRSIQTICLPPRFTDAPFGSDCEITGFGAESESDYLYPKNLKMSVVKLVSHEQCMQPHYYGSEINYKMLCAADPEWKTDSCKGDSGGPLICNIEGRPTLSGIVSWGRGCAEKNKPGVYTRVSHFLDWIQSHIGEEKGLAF
T6 sequence (P06869 21-178 partner limits assumed): as the sequence (P06869 21-178 partner limits assumed) above
T8 sequence (P06869 180-433 V396T): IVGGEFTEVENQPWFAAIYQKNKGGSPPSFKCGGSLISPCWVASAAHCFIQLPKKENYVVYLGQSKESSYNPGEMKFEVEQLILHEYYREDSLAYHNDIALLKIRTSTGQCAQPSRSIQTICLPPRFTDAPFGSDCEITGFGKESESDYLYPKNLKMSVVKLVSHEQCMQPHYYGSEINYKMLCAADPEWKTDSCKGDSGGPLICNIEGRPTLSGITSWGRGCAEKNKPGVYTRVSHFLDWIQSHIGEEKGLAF
T8 sequence (P06869 21-178 partner limits assumed): as the sequence (P06869 21-178 partner limits assumed) above
T4 sequence (P06869 180-433 K210A): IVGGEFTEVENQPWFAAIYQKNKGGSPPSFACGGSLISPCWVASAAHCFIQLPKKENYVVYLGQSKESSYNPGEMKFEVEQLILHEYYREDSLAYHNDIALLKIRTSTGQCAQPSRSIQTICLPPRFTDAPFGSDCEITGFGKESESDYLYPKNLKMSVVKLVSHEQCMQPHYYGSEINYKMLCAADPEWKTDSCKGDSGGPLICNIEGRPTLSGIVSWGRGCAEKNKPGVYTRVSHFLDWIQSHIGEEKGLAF
T4 sequence (P06869 21-178 partner limits assumed): as the sequence (P06869 21-178 partner limits assumed) above

Compound: CC(=O)N[C@H]1CSSC[C@@H](C(N)=O)NC(=O)[C@H](CC(=O)O)NC(=O)[C@H](CC(C)C)NC(=O)[C@H](Cc2ccc(O)cc2)NC(=O)[C@H](CCCNC(=N)N)NC(=O)[C@H](CO)NC(=O)[C@H](Cc2ccc(O)cc2)NC(=O)[C@H](C)NC(=O)[C@@H]2CCCN2C1=O [Mupain-1, CPAYSRYLDC] (Ac-CPAYSRYLDC-NH2; disulfide 1-10)
Ki (huPA-H99Y R35A): 39500 ± 2900 nM
Ki (huPA-H99Y V41A): 32400 ± 5300 nM
Ki (huPA-H99Y K143A): 56600 ± 8000 nM
Ki (muPA K41A): 4290 ± 150 nM
Ki (muPA Y99A): 26000 ± 5800 nM
Ki (muPA K143A): 4880 ± 350 nM
Ki (muPA S190A): 1600 ± 530 nM
Ki (muPA V213T): 246 ± 44 nM
Kd (huPA-H99Y [1]; K D, huPA-H99Y, 25°C, pH 7.4, calculated as k off/k on): 14100 ± 2400 nM
Kd (huPA-H99Y [1]; KD of fitted curve, representative sensorgram, huPA-H99Y immobilized on CM5 chip, single example (S3 Fig)): 15800 nM
k off, huPA-H99Y (huPA-H99Y [1]; 25°C, pH 7.4): 80.2±7.6 (4) s^-1, ×10^2
k on, huPA-H99Y (huPA-H99Y [1]; 25°C, pH 7.4): 0.569±0.103 (4) M^-1s^-1, ×10^-5
koff (huPA-H99Y [1]; huPA-H99Y immobilized on CM5 chip, single example (S3 Fig), read-out: koff of fitted curve, representative sensorgram): 0.803 s⁻¹
kon (huPA-H99Y [1]; huPA-H99Y immobilized on CM5 chip, single example (S3 Fig), read-out: kon of fitted curve, representative sensorgram): 50900 M⁻¹ s⁻¹
k off, muPA (muPA): 3.64±1.03 (6) s^−1, ×10^2
k on, muPA (muPA): 0.914±0.250 (6) M^−1s^−1, ×10^−5
Kd (huPA-H99Y [2]): 5040 ± 1610 nM
Ki (huPA-H99Y [3]): 15300 ± 2000 nM
Ki (muPA wt [4]): ~500 nM
Ki (huPA-H99Y Q192A): 33200 ± 4200 nM

Ki (huPA-H99Y [5]): 186 ± 36 nM
Ki (huPA-H99Y R35A; 37°C, means ± S.D., read-out: K i for inhibition of huPA-H99Y-R35A): 231 ± 78 nM
Ki (huPA-H99Y V41A; 37°C, means ± S.D., read-out: K i for inhibition of huPA-H99Y-V41A): 478 ± 137 nM
Ki (muPA wt [6]): 190 ± 10 nM
Ki (muPA K41A; means ± S.D., read-out: K i for inhibition of muPA-K41A): 91 ± 7 nM
Ki (muPA Y99A; means ± S.D., read-out: K i for inhibition of muPA-Y99A): 5890 ± 1310 nM
Ki (muPA K143A): 1000 ± 30 nM
Ki (muPA S190A; means ± S.D., read-out: K i for inhibition of muPA-S190A): 3520 ± 500 nM
Ki (muPA V213T; means ± S.D., read-out: K i for inhibition of muPA-V213T): 166 ± 75 nM
k off, huPA-H99Y (huPA-H99Y [1]; 25°C, pH 7.4): 7.94±0.39 (3) s^-1, ×10^2
k on, huPA-H99Y (huPA-H99Y [1]; 25°C, pH 7.4): 5.93±0.33 (3) M^-1s^-1, ×10^-5
Kd (huPA-H99Y [1]; 25°C, pH 7.4, calculated as k off/k on, read-out: K D, huPA-H99Y): 134 ± 2 nM
k off, muPA (muPA): 3.94±0.30 (3) s^−1, ×10^2
k on, muPA (muPA): 2.42±1.01 (3) M^−1s^−1, ×10^−5
Kd (muPA; calculated as k off/k on, read-out: K D, muPA): 177 ± 51 nM
Kd (huPA-H99Y [2]): 138 ± 47 nM
N (huPA-H99Y [2]): 0.88±0.01 (3)
TΔS (huPA-H99Y [2]): −18.9±5.1 (3) ^1 kJ/mole
ΔG (huPA-H99Y [2]): −39.2±0.8 (3) ^1 kJ/mole
ΔH (huPA-H99Y [2]): −60.1±5.4 (3) ^1 kJ/mole
Ki (huPA-H99Y Q192A; 37°C, means ± S.D., read-out: K i for inhibition of huPA-H99Y-Q192A): 438 ± 79 nM
Compound: CC(=O)N[C@H]1CSSC[C@@H](C(N)=O)NC(=O)[C@H](C)NC(=O)[C@H](CC(C)C)NC(=O)[C@H](Cc2ccc(O)cc2)NC(=O)[C@H](Cc2ccc(NC(=N)N)cc2)NC(=O)[C@H](CO)NC(=O)[C@H](Cc2ccc(O)cc2)NC(=O)[C@H](C)NC(=O)[C@@H]2CCCN2C1=O [Mupain-1-12 D9A, CPAYS[4-guanidino-phenyl-alanine]YLAC] (Ac-CPAYS[Phe(4-guanidino)]YLAC-NH2; disulfide 1-10; N-terminus assumed)
